According to ChEMBL document CHEMBL1201862, “PubChem BioAssay data set” (2004):
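96-well plates; 48 h exposure; 5 concentrations. Endpoints by linear interpolation between flanking doses. Not reached: highest tested concentration assigned. Abbreviation: GI50, concentration required for 50% inhibition of growth.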 Calls of active or inactive are those of the source. No stated cut-off is given here; in the data, active = GI50 up to about 1.1 µM and inactive = higher.

Columns and labels:
MDA-N = experiment: inhibition of tumour cell growth, NCI panel, 48 h
T47D = experiment: inhibition of tumour cell growth, NCI panel, 48 h

SMILES	GI50 (MDA-N)	GI50 (T47D)
CCOC(=O)C(NC(=O)CC)(Nc1cc(C)on1)C(F)(F)F (stereo not given)	> 100 µM (inactive)	> 100 µM (inactive)
CC1C2(C)OC(=N)C(C#N)(C(C)O2)C1(C#N)C#N (stereo not given)	18.6 µM (inactive)	30.1 µM (inactive)
CCN1CCN=c2c3cc(OC)ccc3n3cnc4ccc1c2c43	0.256 µM (active)	0.39 µM (active)
Cn1c(=O)[nH]c2[nH]c3ccccc3c2c1=O	> 100 µM (inactive)	> 100 µM (inactive)
O=[N+]([O-])c1ccc(N/N=C(\c2ccccc2)c2ccccn2)nc1	20 µM (inactive)	0.0107 µM (active)
COc1ccc(/C=C2/CCS(=O)(=O)c3ccc(C)cc3C2=O)cc1OC	11.9 µM (inactive)	13.2 µM (inactive)
CC(C)(C)c1ccc2c(c1)CNCCNCc1cc(C(C)(C)C)ccc1OCC1(CO2)COc2ccc(C(C)(C)C)cc2CNCCNCc2cc(C(C)(C)C)ccc2OC1	0.649 µM (active)	1.91 µM (inactive)
Oc1c(N2CCCCC2)cc(-c2cc(N3CCCCC3)c(O)c3ccccc23)c2ccccc12	17 µM (inactive)	32.4 µM (inactive)
Cc1cn(C2CC(N)C(C(=O)O)O2)c(=O)[nH]c1=O (stereo not given)	> 100 µM (inactive)	–
COc1ccc(OC)c2c1C=CC(Br)=CC2	0.229 µM (active)	0.192 µM (active)
CCN(CC)CCNc1c(OC)cc(C)c2sc3ccccc3c(=O)c12	–	11.4 µM (inactive)
NNC(=O)c1ccccc1NC(=O)/C(=C/c1ccccc1)NC(=O)c1ccccc1	72.4 µM (inactive)	> 100 µM (inactive)
CC(Cc1ccccc1)N(C)Cc1nc(C2CCC([N+](=O)[O-])O2)no1 (stereo not given)	–	19.1 µM (inactive)
COc1c(C)c(OC)c2c(c1O)[C@@H]1[C@@H]3Cc4c(OC)c(C)c(OC)c(O)c4[C@H](CNC(=O)c4ccc5ccccc5n4)N3[C@@H](C#N)[C@H](C2)N1C	0.000807 µM (active)	0.000277 µM (active)
CNC(=S)Nc1ccc(OC)c2ccccc12	> 10 µM (inactive)	> 10 µM (inactive)
CC(C)CC(C#CCCOC(=O)c1ccccc1)OC(=O)c1ccccc1 (stereo not given)	> 10 µM (inactive)	> 10 µM (inactive)

SMILES	GI50 (MDA-N)	GI50 (T47D)
O=C(O)c1cccc(/N=N/c2c(S(=O)(=O)O)ccc3c2C(=O)c2ccccc2C3=O)c1O	> 100 µM (inactive)	> 100 µM (inactive)
Cc1cccc(-n2c(C)nc3ccc(NC4OC(CO)C(O)C(O)C4O)cc3c2=O)c1 (stereo not given)	> 100 µM (inactive)	> 100 µM (inactive)
CCOc1ccc2ccccc2c1NC1=NCCO1	–	29.7 µM (inactive)
COC(=O)c1cc(C)n2c1CS[C@@H]2c1ccccc1	21.1 µM (inactive)	21.5 µM (inactive)
O=C1C=C(OCCCCl)C(=O)c2c(O)ccc(O)c21	0.184 µM (active)	2.19 µM (inactive)
CO[C@]12C[C@@H](CNC(=O)c3cc(Br)c[nH]3)O[C@H]1NC(=O)N2	–	> 100 µM (inactive)
CCN(CC)c1c(C(C)(C)C)c(=O)n2ccsc2c1OC(C)=O	18.6 µM (inactive)	–
Cc1ccc(Nc2nc(N)nc3c2ncn3C2OC(CO)C(O)C2O)cc1 (stereo not given)	> 100 µM (inactive)	> 100 µM (inactive)
O=c1c2ccc(Cl)cc2oc2c(CNc3ccc(S(=O)(=O)Nc4nccs4)cc3)cccc12	> 100 µM (inactive)	> 100 µM (inactive)
COC(=O)[C@H](Cc1c[nH]c2ccccc12)NC(=O)OCC1OC(n2cc(C)c(=O)[nH]c2=O)CC1N=[N+]=[N-] (stereo not given in full)	> 100 µM (inactive)	> 100 µM (inactive)
Cc1nn(C(=O)c2ccc(Cl)cc2)c2c1C(c1cccc([N+](=O)[O-])c1)SC(=N)N2 (stereo not given)	> 10 µM (inactive)	> 10 µM (inactive)
COc1nc(N)nc2c1ncn2C1CC(O)C(CO)O1 (stereo not given)	–	> 100 µM (inactive)
O=S(=O)(O)c1cccc2c(/N=N/c3c(O)ccc4ccccc34)cccc12	> 100 µM (inactive)	> 100 µM (inactive)
Cc1cn(C2CC(O)C(COP(=O)(O)OC3CC(n4c[n+]([BH2-]C#N)c5c(=O)[nH]c(N)nc54)OC3CO)O2)c(=O)[nH]c1=O (stereo not given)	> 100 µM (inactive)	> 100 µM (inactive)
c1ccc(-c2nc(-c3ccccc3)c(-c3ccccc3)[nH]2)cc1	> 88.7 µM (inactive)	42.3 µM (inactive)
